Results from patent publication US8969563B2, “Calcium salt of pyrroloquinoline quinone” (Mitsubishi Gas Chemical Company, Inc., priority 2010, dated 2015).
Where a name gives a salt, the structure may show the parent alone.

Columns and labels:
[1] = test system: Chinese hamster ovary cells (CHO-DHFR−); experiment: Absorption test using cells (cell growth promotion / retardation); assay type: cell-based; settings: 2-day culture; for Optimum cell growth concentration: Cell Counting Kit 8, absorbance 450 nm, concentration at which cell count is largest (about 5%) compared to without PQQ, tested 150 to 2.3 μg/mL; for Cell growth retarding concentration: concentration at which total cell count is decreased by about 10% compared to without PQQ
Experimental: PQQ has effects of promoting cell growth and of retarding cell growth at a higher concentration on cultured animal cells. Based on these effects, change in the cell absorption was tested.
Chinese hamster ovary cells (CHO-DHFR^−, Dainippon Sumitomo Pharma Co., Ltd.) were cultured in a medium (alpha-MEM+10% fetal bovine serum) containing 5% CO2 at 37° C. The cultured cells were added together with 100 μL of the medium to each well of the 96-well plate (IWAKI) so that the cell density per well is 6,000 cells/well, and culture was performed overnight. The culture solution was removed, and the medium having a predetermined test concentration was added thereto. After a 2-day culture, the medium was replaced, a Cell Counting Kit 8 (from DOJINDO LABORATORIES) was used to stain the cells for one hour, and measurement of absorbance was performed at 450 nm. The absorbance in this case is proportional to the cell number.
As the test samples, the crystalline calcium salts of PQQ in Examples 1 and 2 above, and the disodium salt of PQQ or the raw material in Test Example 1, were used for testing after dilution by the medium. The test was duplicated for each sample, and the results were averaged.
The concentration at which the cell count due to PQQ is largest (about 5%) compared to the case without PQQ is recorded as the optimum cell growth concentration. In addition, the concentration at which the total cell count is decreased by about 10% compared to the case without PQQ is recorded as the cell-growth retarding concentration.

[2] = Water solubility of the recovered solid (description); assay type: physicochemical; settings: dried solid
[3] = Elution test: amount of PQQ dissolved from the calcium salt with or without a chelating substance; assay type: physicochemical; settings: for Dissolved amount: added to water (1 mL), four hours at room temperature, centrifugation, absorption at 450 nm
Experimental: Changes in the solubility of the insoluble salt due to the addition of a chelating substance were measured.

[4] = Release of PQQ from the white calcium salt in solvents; assay type: physicochemical; settings: for Appearance: 40° C., five hours
Experimental: After keeping each resultant mixture at 40° C. for five hours, centrifugation was performed to remove solids, and PQQ was analyzed on high performance liquid chromatography.

Row | water solubility [2] | Dissolved amount [3] [%] | solubility of the calcium salt alone ([3]; water, no chelating substance) | Appearance ([4]; Acetic acid 30 mM + Ammonium acetate 70 mM (pH 5)) | Appearance ([4]; Dimethyl sulfoxide) | Appearance ([4]; Na2HPO4 23.5 g/L NaH2PO4 5 g/L) | Appearance ([4]; PBS (GIBCO, pH 7.4)) | Appearance ([4]; Simulated gastric fluid (pH 1.7)) | release of calcium ions ([4]; neutral solution of phosphoric acid) | release of calcium ions ([4]; simulated gastric fluid) | Molecule | Optimum cell growth concentration [1] [µg/mL] | Cell growth retarding concentration [1] [µg/mL]
1 | – | – | – | – | – | – | – | – | – | – | O=C([O-])c1cc(C(=O)[O-])c2c(n1)C(=O)C(=O)c1cc(C(=O)O)[nH]c1-2.[Na+].[Na+] [Comparative Example 1, disodium salt of PQQ, reference compound] | 75 | 150
2 | poorly water-soluble | 1 | very low | – | – | – | – | – | – | – | O=C(O)c1cc(C(=O)O)c2c(n1)C(=O)C(=O)c1cc(C(=O)O)[nH]c1-2 [Example 1, crystalline calcium salt of PQQ] | 2.3 | 75
3 | – | 3 | – | – | – | – | – | – | – | – | crystalline calcium salt of PQQ [Example 2] | 4.7 | 75
4 | – | – | – | White solid | Red solution | Red solution | Red solid | Red solid | easily released | difficult to be released | white calcium salt of PQQ [Example 15] | – | –
